From patent US20080095786A9, “Compositions And Methods For Preventing And Treating Endotoxin-Related Diseases And Conditions” (priority 2003, published 2008) come the findings set out here.

A short description of data set [1]: Antioxidant screening experiments: stability of E5564 to free-radical oxidation. The conditions noted are these: for Comments (effectiveness of antioxidant in stabilizing E5564 to oxidation): 18-22 hours.
Excerpt: We tested several antioxidant compounds to determine whether they impact the stability of E5564 to free-radical oxidation.
A short description of data set [2]: Relative stability of E5564 in aqueous solution by formation of major oxidative degradants (FIG. 1). It is filed as physicochemical. The conditions noted are these: inclusion of BHA, 7 μg/vial. As to the method:
FIG. 1 is a graph showing the relative stability of E5564 in aqueous solution prepared with different drug substance lots, as measured by the formation of major oxidative degradants.
The following is a detailed description of an example of a method for formulating E5564. As is discussed further below, key features of this method include the following. A small amount (7 μg/vial) of butylated hydroxyanisole (BHA) was added to the formulation to prevent oxidation of the E5564 in aqueous solution. […] In addition, the sodium content of the solution was lowered by replacing sodium phosphate salts with phosphoric acid for pH adjustment, to enhance micelle size stability during the freeze-drying manufacturing step, and a high shelf temperature was used in the freeze-drying step of the process.

Data set [3] in a line: Stabilization of E5564 micelle size during lyophilization (freeze-drying). The conditions noted are these: for Micelle Size (hydrodynamic diameter): after lyophilization; for Stabilizing the micelle size of E5564 during freeze-drying: disaccharide in formulation.
Setting [4] is: time 0-4 hours, E5564 solution with the labelled antioxidant.
Where [5] appears, read: time 18-22 hours, E5564 solution with the labelled antioxidant (row 'none' = E5564 without antioxidant).
Setting [6] is: time 0 hours, E5564 solution with the labelled antioxidant (row 'none' = E5564 without antioxidant).

Take `O[C@H](CS)[C@H](O)CS` (racemic) [dithiothreitol]: the “Comments (effectiveness of antioxidant in stabilizing E5564 to oxidation)” value (“Comments” below) in data set [1] is “effective”.
Turning to `O=C1O[C@H]([C@@H](O)CO)C(O)=C1O` [Ascorbic Acid], in data set [1], the “Comments” value was “Not useful, sta-”. The “E5564 conc. (% initial)” value was 100 % initial in data set [1] (setting [4]) and 97.4 % initial in data set [1] (setting [5]).
In the case of `CCCCCCCCCCCCCCCC(=O)OC[C@H](O)[C@H]1OC(=O)C(O)=C1O` [Ascorbyl Palmitate], in data set [1], the “Comments” value is on record as “Not useful, sta-”. Also, the “E5564 conc. (% initial)” value in data set [1] (setting [4]) was 100 % initial; in data set [1] (setting [5]), 92.4 % initial.
Turning to `COc1ccc(O)c(C(C)(C)C)c1` [BHA, butylated hydroxyanisole], the “Stability of E5564 drug product in solution” value in data set [2] was “increases its stability”. The “Comments” value in data set [1] is recorded as “Effective”. In addition, in data set [1] (setting [6]), the “E5564 conc. (% initial)” value turned out to be 100 % initial and the “Major Oxidative Degradant” value turned out to be 0.68. Also, in data set [1] (setting [5]), the “E5564 conc. (% initial)” value came to 102.3 % initial and the “Major Oxidative Degradant” value was 0.27.
As to `Cc1cc(C(C)(C)C)c(O)c(C(C)(C)C)c1` [BHT, butylated hydroxytoluene], the “Comments” value in data set [1] is given as “Effective”. Besides, the “E5564 conc. (% initial)” value in data set [1] (setting [6]) was 100 % initial; in data set [1] (setting [5]) it was 102.8 % initial.
Regarding `CCCCCC/C=C\CCCCCCCCCC(=O)N[C@H]1[C@H](OC[C@H]2O[C@H](OP(=O)([O-])[O-])[C@H](NC(=O)CC(=O)CCCCCCCCCCC)[C@@H](OCCCCCCCCCC)[C@@H]2O)O[C@H](COC)[C@@H](OP(=O)([O-])[O-])[C@@H]1OCC[C@@H](CCCCCCC)OC.[Na+].[Na+].[Na+].[Na+]` [E5564], the “Comments” value in data set [1] is on record as “Rapid degradation”. The “E5564 conc. (% initial)” value in data set [1] (setting [6]) is listed as 100 % initial; in data set [1] (setting [5]) it was 91.3 % initial. For the same compound, the “Major Oxidative Degradant” value stood at 1.12 in data set [1] (setting [6]) and 6.02 in data set [1] (setting [5]). In data set [3] (2 mM Na+ in formulation (excluding Na+ from the drug)), the “Stability of micelle size” value is recorded as “good stability”. Further, the “Maintaining the desired micelle size during freeze-drying” value in data set [3] (10 mM Na+ in formulation (excluding sodium from the drug)) is on record as “works for some, but not all, lots”. The “Micelle Size (hydrodynamic diameter)” value in data set [3] (1% (w/v) lactose in formulation) came out at 16 nm; in data set [3] (2% (w/v) lactose in formulation) it was 13 nm; in data set [3] (5% (w/v) lactose in formulation) it was 8 nm; in data set [3] (10% (w/v) lactose in formulation), 7 nm.
With `OCC(O)CS` (centres unmarked) [Monothioglycerol, monothioglycerol], the “Comments” value in data set [1] is “Effective”. Moreover, the “E5564 conc. (% initial)” value in data set [1] (setting [4]) came to 100 % initial; in data set [1] (setting [5]), 101.3 % initial.
`CCCOC(=O)c1cc(O)c(O)c(O)c1` [Propyl Gallate, propyl gallate]: in data set [1], the “Comments” value is recorded as “Effective”. Further, the figures for the “E5564 conc. (% initial)” value in data set [1] (setting [6]) and in data set [1] (setting [5]) were 100 % initial and 100.6 % initial, respectively.
For `O=S([O-])[O-].[Na+].[Na+]` [Sodium Sulfite, sodium sulfite], the “Comments” value in data set [1] was “Effective”. Also, in data set [1] (setting [4]), the “E5564 conc. (% initial)” value turned out to be 100 % initial and the “Major Oxidative Degradant” value is recorded as 0.13. For the same compound, in data set [1] (setting [5]), the “E5564 conc. (% initial)” value amounted to 101.8 % initial and the “Major Oxidative Degradant” value stood at 0.25.
Turning to `O=S([O-])([O-])=S.[Na+].[Na+]` [Sodium Thiosulfate, sodium thiosulfate], in data set [1], the “Comments” value is “Effective”. Further, in data set [1] (setting [4]), the “E5564 conc. (% initial)” value worked out at 100 % initial and the “Major Oxidative Degradant” value stood at 0.09. Besides, in data set [1] (setting [5]), the “E5564 conc. (% initial)” value stood at 100.2 % initial and the “Major Oxidative Degradant” value is given as 0.19.
For `CC(=O)Oc1c(C)c(C)c2c(c1C)CCC(C)(CCC[C@H](C)CCC[C@H](C)CCCC(C)C)O2` (some centres unmarked) [Vitamin E Acetate], the entries for the “E5564 conc. (% initial)” value in data set [1] (setting [4]) and in data set [1] (setting [5]) were 100 % initial and 94.2 % initial, respectively.
Regarding `OC[C@H]1O[C@@H](O[C@H]2[C@H](O)[C@@H](O)C(O)O[C@@H]2CO)[C@H](O)[C@@H](O)[C@H]1O` (some centres unmarked) [lactose], the “Stabilizing the micelle size of E5564 during freeze-drying” value in data set [3] is given as “effective”.
Turning to `OC[C@H]1O[C@@](CO)(O[C@H]2O[C@H](CO)[C@@H](O)[C@H](O)[C@H]2O)[C@@H](O)[C@@H]1O` [sucrose], the “Stabilizing the micelle size of E5564 during freeze-drying” value in data set [3] was “effective”.
